Measured values from US6160166A, “Phosphonated agents and their antiangiogenic and antitumorigenic use” (priority 1999, dated 2000).
Entries after “also recorded” stand apart in the source; their conditions may differ.

What was measured:
[1] = system: human dermal microvascular and porcine pulmonary artery endothelial cells; assay: bFGF-stimulated and non-stimulated endothelial cell growth (total protein, total DNA); type: cell-based; conditions: suramin 210 μM
Text: Suramin is a highly charged molecule with six sulfonate groups that are ionized at physiologic pH.

[2] = system: PKC type I-III; conditions: Mahoney et al., 1990; read-out: ID50, PKC type I-III activity; cited from earlier work
[3] = system: urokinase receptor; conditions: cited from earlier work
[4] = system: tyrosine specific phosphorylation of cellular proteins; conditions: Ghosh and Miller, 1993; cited from earlier work
[5] = system: porcine pulmonary artery macrovascular endothelial cell; assay: Porcine pulmonary artery macrovascular endothelial cell growth, total protein and total DNA; type: cell-based
[6] = system: chick chorioallantoic membrane (CAM); assay: Chick egg chorioallantoic membrane (CAM) assay, 11-day, established vessels; type: in vivo
Experimental: According to Ausprunk et al. (1974), capillary angiogenesis in the CAM is completed by day 11. Measurements of intercapillary distances are also consistent with the cessation of capillary growth after day 10. […] The implants were prepared as previously described by Gagliardi et al. (1992), implanted on day 11 and read on day 13.
Comparison of the inhibition of angiogenesis by 70 nmol of
suramin or a equimolar amount of a phosphonic acid agents in the
6-day and 11-day chick egg chorioallantoic (CAM) assay.

[7] = system: prostate carcinoma cells; conditions: after 24 hr exposure (Qiao et al., 1994); cited from earlier work
[8] = system: microvascular endothelial cell migration; assay: Endothelial cell migration in vitro; type: cell-based
[9] = Toxicity in vivo in mice; design: species or system mouse
Experimental: Mice were injected intraperitoneally with 0-150 μM/kg body weight of the compounds to be tested, every other day for a total of five injections. The animals were carefully observed daily and weighed every third day for 28 days after the last injection. After the 28-day observation period, the animals were euthanized, blood was collected through cardiac puncture and the following tissues were subjected to histological investigation: heart, lungs, liver, spleen, adrenal gland, kidney, sciatic nerve, soleus muscle and brain.
It is clear from studies so far that compounds with equipotent or greater antitumor activity but with substantially lower toxicity are of considerable potential therapeutic value as an antitumorigenic or antiangiogenic agent. […] The animals were carefully observed daily and weighed every third day for 28 days after the last injection. After the 28-day observation period, the animals were euthanized, blood was collected through cardiac puncture and the following tissues were kept for histological investigation: heart, lungs, liver, spleen, adrenal gland, kidney, sciatic nerve, soleus muscle and brain.

[10] = system: human cerebral meningioma cells; conditions: Schrell et al., 1995; cited from earlier work
[11] = system: human dermal Microvascular endothelial cells; assay: Inhibition of bFGF-stimulated growth of human microvascular endothelial cells; type: cell-based; conditions: Homo sapiens, Endothelial cell; bFGF-stimulated; estimated from dose response curve
Experimental: Inhibition of cell growth was evaluated by measuring total protein and total DNA and the IC50 was estimated for each dose response curve.

[12] = system: different cancer cell lines; assay: MTT cell proliferation, different cancer cell lines; type: cell-based, human; conditions: cancer cell lines in vitro
[13] = system: human microvascular endothelial cells (HMEC-1, HMVEC-d); assay: 3H-Leucine incorporation, inhibition of protein synthesis; type: cell-based; conditions: time course
Experimental: For each time period, six replicate flasks are set up. The volume of the medium MCDB-131 is 10 ml per flask. After incubation, the medium was replaced with fresh MCDB-131 containing […] of ^3 H-leucine and incubated for a further 90 min. TritonX-100 (240 μl, 10%) were then added to the contents of each flask and agitated. Trichloroacetic acid (TCA) (4 ml, 20%) is added, the contents mixed and the flasks left overnight at room temperature. After 24 hr, the flask contents was suspended by shaking, transferred to tubes and centrifuged at 4300 g. The pellets were resuspended in 10% TCA and recentrifuged and then resuspended in 3.0 ml of 0.1 M NaOH. Half of this volume was transferred to scintillation vials in 10 ml of Emulsifier Safe scintillation fluid (Packard) while the remaining 1.5 ml was used to assay DNA content (LaBarca and Paigen, 1980). The radioactive counts due to protein synthesized in the presence of ^3 H-leucine was normalized to counts/μg DNA. Protein synthesis by cells treated with the phosphonic acid agents are expressed relative to that of control cells as the percent of inhibition for each time of incubation.
After this period of time, the rate steadily declines.

[14] = system: bFGF binding sites of human microvascular endothelial cells; assay: I125 bFGF binding to human microvascular endothelial cells; conditions: for percentage of inhibition of I125 bFGF binding: low and high affinity binding sites
Text: However, for the same concentrations of the phosphonic acid agents, the inhibition of growth factor binding was always less than 5% in relation to the control.
However, for the same concentrations of phosphonic acid agents, the inhibition of growth factor binding was always less than 5% in relation to the control.

[15] = system: p34cdc2 kinase; conditions: literature; extracts from human small cell lung cancer cells; cited from earlier work
[16] = system: DNA synthesis; conditions: Jindal et al. (1990); cited from earlier work

Cc1ccc(C(=O)Nc2ccc(S(=O)(=O)O)c3cc(S(=O)(=O)O)cc(S(=O)(=O)O)c23)cc1NC(=O)c1cccc(NC(=O)Nc2cccc(C(=O)Nc3cc(C(=O)Nc4ccc(S(=O)(=O)O)c5cc(S(=O)(=O)O)cc(S(=O)(=O)O)c45)ccc3C)c2)c1 [suramin]
effect on bFGF stimulation of endothelial cell growth [1]: inhibited the stimulatory effect of bFGF; also recorded: inhibited the growth factor stimulatory effect | IC50 [2]: 50 µM | inhibition of urokinase receptor mediated plasminogen activation [3]: specific inhibition of the activity of the urokinase receptor mediated cell surface plasminogen activation system | effect on tyrosine specific phosphorylation [4]: increase the global tyrosine specific phosphorylation of cellular proteins in vivo | effect on total protein and total DNA ([5]; suramin higher than 250 μg/ml): significant dose-related reduction in total protein and total DNA | effect on porcine pulmonary artery macrovascular endothelial cell growth ([5]; up to 100 μg/ml): did not have any significant inhibitory effect | 11-day CAM % Inhibition ([6]; 70 nmol or equimolar amount): 50% | inhibitory activity in the 11-day CAM, in words ([6]; established vessels): showed antiangiogenic activity; also recorded: clearly affected both the growing and established vascular cells | effect on cell cycle [7]: slowly arrested in the G1 phase | minimal effective concentration ([8]; Endothelial cell, read-out: concentration inhibiting endothelial cell migration): > 150 µg/mL | inhibition of migration, in words ([8]; number of cells migrated and distance traveled): significantly inhibited endothelial cell migration | reduction in body weight ([9]; 150, 75 and 35 μM/kg body weight, injection period): 10-15% | histological findings ([9]; after 28-day observation, suramin or equimolar doses): dose-related frequency of lipoid degeneration of the zona reticularis of the adrenal gland and vacuolar changes in the proximal convoluted tubules of the renal tubular epithelium | mortality ([9]; i.p., every other day, five injections, suramin 150 μM/kg, agents up to 150 μM/kg): died before completion of the five injections | body weight, in words ([9]; i.p., five injections, 28 days observation): body weight stabilized but did not return to normal | effect on proliferation and cell cycle [10]: inhibited proliferation of human cerebral meningioma cells and increased the percentage of cells in the S and G2/M phase of the cell cycle; also recorded: inhibited meningioma cell proliferation in five different tumor lines by arresting cells in G2-M and S phases of the cell cycle | IC50 [11]: 437 µM | antiproliferative activity, in words [12]: inhibited cell proliferation in a dose-related manner | effect on protein synthesis [13]: no change in the rate of protein synthesis until suramin and the cells have been incubated together for at least 24 hr | percentage of inhibition of I125 bFGF binding ([14]; 25 μM): 9% | percentage of inhibition of I125 bFGF binding ([14]; 70 μM): 96% | effect on bFGF binding, in words ([14]; same molar concentrations as suramin): inhibited I^125 bFGF binding in a dose-related manner | effect on purified cdc2 kinase / tyrosine phosphorylation [15]: direct inhibitory effect on purified cdc2 kinase and also modulates the tyrosine phosphorylation of cdc2 kinase | effect on DNA synthesis [16]: inhibitory action of suramin on DNA synthesis
